Laboratory results taken from patent publication US9850300B2, “Compositions and methods relating to inhibiting cancer cell growth and/or proliferation” (The Regents of the University of Michigan, priority 2013, dated 2017).
Entries after “also recorded” stand apart in the source; their conditions may differ.

B1: EGFL6^RGE: EGFL6 protein with an RGD-to-RGE mutation of the integrin binding motif (protein)
chain: NAASARHHGLLASARQPGVCHYGTKLACCYGWRRNSKGVCEATCEPGCKFGECVGPNKCRCFPGYTGKTCSQDVNECGMKPRPCQHRCVNTHGSYKCFCLSGHMLMPDATCVNSRTCAMINCQYSCEDTEEGPQCLCPSSGLRLAPNGRDCLDIDECASGKVICPYNRRCVNTFGSYYCKCHIGFELQYISGRYDCIDINECTMDSHTCSHHANCFNTQGSFKCKCKQGYKGNGLRCSAIPENSVKEVLRAPGTIKDRIKKLLAHKNSMKKKAKIKNVTPEPTRTPTPKVNLQPFNYEEIVSRGGNSHGGKKGNEEKMKEGLEDEKREEKALKNDIEERSLRGEVFFPKVNEAGEFGLILVQRKALTSKLEHKDLNISVDCSFNHGICDWKQDREDDFDWNPADRDNAIGFYMAVPALAGHKKDIGRLKLLLPDLQPQSNFCLLFDYRLAGDKVGKLRVFVKNSNNALAWEKTTSEDEKWKTGKIQLYQGTDATKSIIFEAERGKGKTGEIAVDGVLLVSGLCPDSLLSVDD

Columns and labels:
Type in all cases: cell-based
[1] = test system: ALDH+ CSCs in SKOV3 cells; assay: ALDH+ cell percentage and number (ALDEFLUOR FACS); details: Echistatin 100 nM pretreatment 24 hours or EGFL6 antibody 5 μg/ml, then EGFL6
Source text: It has been shown that aldehyde dehydrogenase enzymatic activity (ALDH) is an excellent marker of ovarian CSCs in SKOV3 cells and primary patient samples (see, e.g., Silva, I. A., et al. Cancer Res (2011); Landen, C. N., Jr., et al. Mol Cancer Ther 9, 3186-3199 (2010); Steg, A. D., et al. Clin Cancer Res 18, 869-881 (2012); Kryczek, I., et al. Int J Cancer 130, 29-39 (2012); Deng, S., et al. PLoS ONE 5, e10277 (2010)). The impact of EGFL6 treatment on the percentage of ALDH^+ CSCs in vitro was next assessed. […] However, given the increase in total cell numbers, the absolute ALDH^+ CSC number remained unchanged (FIG. 3Aiii). […] Human ovarian cancer ascites cells were also treated with EGFL6 in a tumor sphere assay. Once again, treatment with EGLF6 was associated with a reduction in ALDH^+ cell percentages in tumor spheres (FIG. 3B).
(§1) SKOV3, A2008, and A2780 were maintained in RPMI-1640, supplemented with 10% FBS with 1% Penicillin/Streptomycin, and cultured in humidified atmosphere of 5% CO2 at 37° C. For all in vitro cell culture experiments, isolated cells were allow to recover overnight following FACS, prior to treatment. Infantile Hemangioma Stem cells were maintained in EBM-2 medium with growth factor supplement cocktails in culture plates coated with fibronectin. For Echistatin and EGFL6 treatment, cells were pretreated with Echistatin (Sigma, 100 nM) for 24 hours prior to EGFL6 treatment. All transfections were performed using FuGene6 reagent (Promega) per company protocol.
FACS assay was performed as previously described (see, e.g., Silva, I. A., et al. Cancer Res (2011)). Briefly, SKOV3 cells or primary ovarian tumor/ascetics cells were stained for ALDH using ALDEFLUOR kit per company protocol (Stem Cell Technologies). DAPI staining was used to exclude non-viable cells. For FACS cell sorting, equal number of ALDH and ALDH^(−) cells were collected for subsequent experiments.
EGFL6 monoclonal antibody producing hybridoma cells were maintained in RPMI medium supplemented with 10% FBS. For antibody purification, the cells were cultured in reduced FBS (5%). […]

[2] = test system: phosphorylation of SHP2, ERK, FAK and SRC in SKOV3 cells; assay: Western blot of EGFL6 mediated signal activation; details: for p-SHP2 levels: treatment of ALDH+ SKOV3 cells
Method: Lastly, EGFL6 mediated signal activation was evaluated. Integrin signaling has been reported to induce the […] of FAK, SRC and SHP2 among others. […] Phosphorylation of all of these proteins could be blocked with Echistatin.
Cellular signaling changes associated with EGFL6 was next examined. […] EGFL6 treatment was associated with increased p-SHP2 levels specifically in ALDH^+ cells (FIG. 4Ei). […] SHP2 phosphorylation could be blocked with Echistatin (FIG. 4Eiii) or an EGFL6-blocking antibody. SHP2 phosphorylation was associated with increased p-ERK levels (4Ei-iii).
as §1
EGFL6 monoclonal antibody producing hybridoma cells were maintained in RPMI medium supplemented with 10% FBS. For antibody purification, the cells were cultured in reduced FBS (5%). Culture supernatant was collected and cell debris was removed by centrifugation. EGFL6 antibody was pulled down using Protein G Agarose heeds, Fast Flow (Millipore), washed and eluded with 50 mM glycine PH.2.7. Antibody solution was immediately neutralized to PH 7.2-7.4 with Tris (Ph 9.0, final concentration 25 mM). NaCl was added to final concentration of 150 mM. EGFL6 antibody was applied at 5 μg/ml for in vitro cell treatment and 50 μg/mouse for in vivo treatment.

[3] = test system: SKOV3 cells; assay: EGFL6-mediated cell proliferation, RGE mutation or Echistatin pretreatment; details: for proliferative effect on cancer cells: RGD-to-RGE mutated EGFL6 vs EGFL6, SKOV3
Method: To determine if EGFL6 signaling on cancer cells is via integrin bind, an EGFL6 protein with an […] mutation (EGFL6^RGE) was generated. […] Similarly, pretreatment of SKOV3 cells with the integrin β1/β3 inhibitor Echistatin blocked both EGFL6-mediated cancer cell proliferation and the decrease in ALDH^+ percentage (FIG. 4B).
as §1

Molecule	blockade of EGFL6-mediated reduction in ALDH+ cell percentages [1]	blockade of EGFL6-induced phosphorylation of SHP2, FAK and SRC ([2]; Echistatin pretreatment)	blockade of EGFL6-mediated ERK phosphorylation ([2]; with EGFL6 treatment)	blockade of EGFL6-mediated SHP2 phosphorylation ([2]; with EGFL6 treatment)	blockade of EGFL6-mediated cancer cell proliferation ([3]; Echistatin pretreatment, SKOV3)	p-SHP2 levels [2]	p-SHP2 levels ([2]; listed as EGFL6-RGE mutant)	p-ERK levels ([2]; treatment of ALDH+ and ALDH(−) cells)	proliferative effect on cancer cells [3]	proliferative effect on cancer cells ([3]; listed as EGFL6-RGE mutant)
Echistatin [reference compound]	inhibited the effect of EGFL6; also recorded: blocked; also recorded: inhibits	blocked	suppressed	blocked; also recorded: suppressed	blocked					
B1						did not increase	does not increase	does not increase	eliminated the proliferative effects	suppressed
